Measurements taken from PubChem BioAssay (NCI).
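Exposure lasted 48 hours, with cells grown in 96-well plates and compounds tested at five concentrations. TGI: total growth inhibition.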

Columns and labels:
Assay in all cases: growth of human tumour cells (NCI), 48 h
K-562 leukemia = tested on: K-562 leukemia
LOX IMVI melanoma = tested on: LOX IMVI melanoma
MOLT-4 leukemia = tested on: MOLT-4 leukemia
SN12C renal = tested on: SN12C renal
HCT-116 colon = tested on: HCT-116 colon
786-0 renal = tested on: 786-0 renal
UO-31 renal = tested on: UO-31 renal
UACC-257 melanoma = tested on: UACC-257 melanoma
A549 NSCLC = tested on: A549 NSCLC
HOP-92 NSCLC = tested on: HOP-92 NSCLC
SR leukemia = tested on: SR leukemia
CAKI-1 renal = tested on: CAKI-1 renal
A498 renal = tested on: A498 renal
RPMI-8226 leukemia = tested on: RPMI-8226 leukemia

SMILES: CC(Oc1ccc(OCC2CCCCC2)cc1)C(N)=O (stereo unspecified)
- TGI (K-562 leukemia): > 100 µM
- TGI (LOX IMVI melanoma): > 100 µM
- TGI (MOLT-4 leukemia): > 100 µM
- TGI (SN12C renal): > 100 µM
- TGI (HCT-116 colon): > 100 µM
- TGI (786-0 renal): > 100 µM
- TGI (UO-31 renal): > 100 µM
- TGI (UACC-257 melanoma): > 100 µM
- TGI (A549 NSCLC): > 100 µM

SMILES: NNC(=S)N/N=C(/C(=O)Nc1cc(Cl)ccc1Cl)C1C(=O)Nc2ccccc2S1=O (stereo unspecified)
- TGI (K-562 leukemia): > 100 µM
- TGI (LOX IMVI melanoma): > 100 µM
- TGI (MOLT-4 leukemia): > 100 µM
- TGI (SN12C renal): > 100 µM
- TGI (HOP-92 NSCLC): > 100 µM
- TGI (HCT-116 colon): > 100 µM
- TGI (SR leukemia): > 100 µM
- TGI (786-0 renal): > 100 µM
- TGI (CAKI-1 renal): > 100 µM
- TGI (UO-31 renal): > 100 µM
- TGI (UACC-257 melanoma): > 100 µM
- TGI (A498 renal): > 100 µM
- TGI (A549 NSCLC): > 100 µM

SMILES: CC1(C)OC(C[C@]2(C#N)C[C@H](CCl)OC(C)(C)O2)C[C@@H](C[C@]2(C#N)C[C@H](CCl)OC(C)(C)O2)O1 (stereo partly specified)
- TGI (K-562 leukemia): > 100 µM
- TGI (LOX IMVI melanoma): > 100 µM
- TGI (MOLT-4 leukemia): > 100 µM
- TGI (SN12C renal): > 100 µM
- TGI (RPMI-8226 leukemia): > 100 µM
- TGI (HOP-92 NSCLC): > 100 µM
- TGI (HCT-116 colon): > 100 µM
- TGI (SR leukemia): > 100 µM
- TGI (786-0 renal): > 100 µM
- TGI (CAKI-1 renal): > 100 µM
- TGI (UACC-257 melanoma): > 100 µM
- TGI (A498 renal): > 100 µM
- TGI (A549 NSCLC): > 100 µM

SMILES: COc1cc(-c2cc(=O)c3c(O)c(OC)c(OC)c(OC)c3o2)ccc1O
- TGI (K-562 leukemia): > 100 µM
- TGI (LOX IMVI melanoma): 68.8 µM
- TGI (MOLT-4 leukemia): 93.5 µM
- TGI (SN12C renal): 79 µM
- TGI (RPMI-8226 leukemia): > 100 µM
- TGI (HOP-92 NSCLC): 40.1 µM
- TGI (HCT-116 colon): > 100 µM
- TGI (SR leukemia): > 100 µM
- TGI (786-0 renal): > 100 µM
- TGI (UO-31 renal): > 100 µM
- TGI (UACC-257 melanoma): > 100 µM
- TGI (A498 renal): 17.6 µM
- TGI (A549 NSCLC): 90.7 µM

SMILES: Cc1c(-c2nnc(-c3ccc(Cl)cc3)o2)c(=O)n(-c2ccccc2)n1C
- TGI (K-562 leukemia): > 100 µM
- TGI (LOX IMVI melanoma): > 100 µM
- TGI (MOLT-4 leukemia): > 100 µM
- TGI (SN12C renal): > 100 µM
- TGI (RPMI-8226 leukemia): > 100 µM
- TGI (HOP-92 NSCLC): > 100 µM
- TGI (HCT-116 colon): > 100 µM
- TGI (SR leukemia): > 100 µM
- TGI (786-0 renal): > 100 µM
- TGI (UO-31 renal): > 100 µM
- TGI (UACC-257 melanoma): > 100 µM
- TGI (A498 renal): > 100 µM
- TGI (A549 NSCLC): > 100 µM

SMILES: O=C(c1ccccc1)c1ccc(OCCOc2ccc(Nc3ccccc3)cc2)cc1
- TGI (K-562 leukemia): > 100 µM
- TGI (LOX IMVI melanoma): > 100 µM
- TGI (MOLT-4 leukemia): > 100 µM
- TGI (SN12C renal): > 100 µM
- TGI (HOP-92 NSCLC): 73.5 µM
- TGI (HCT-116 colon): > 100 µM
- TGI (SR leukemia): > 100 µM
- TGI (786-0 renal): > 100 µM
- TGI (CAKI-1 renal): > 100 µM
- TGI (UO-31 renal): > 100 µM
- TGI (UACC-257 melanoma): > 100 µM
- TGI (A498 renal): 79 µM
- TGI (A549 NSCLC): > 100 µM

SMILES: CCCc1c[nH]c(-c2ccc(-c3cc(CCC)c(C=O)[nH]3)s2)c1
- TGI (K-562 leukemia): 49.8 µM
- TGI (LOX IMVI melanoma): 27.7 µM
- TGI (MOLT-4 leukemia): 86.2 µM
- TGI (SN12C renal): 30.2 µM
- TGI (HCT-116 colon): 31.9 µM
- TGI (786-0 renal): 27.7 µM
- TGI (UACC-257 melanoma): 31.2 µM
- TGI (A498 renal): 20.5 µM
- TGI (A549 NSCLC): 17.6 µM

SMILES: CCSC1(SCC)CC(Cc2ccc(OC)cc2)N(C=NC(C)(C)C)C1 (stereo unspecified)
- TGI (K-562 leukemia): 53.8 µM
- TGI (LOX IMVI melanoma): 32.4 µM
- TGI (MOLT-4 leukemia): 40.9 µM
- TGI (SN12C renal): 84.4 µM
- TGI (HOP-92 NSCLC): 25 µM
- TGI (HCT-116 colon): 92.8 µM
- TGI (SR leukemia): 34.2 µM
- TGI (786-0 renal): > 100 µM
- TGI (CAKI-1 renal): > 100 µM
- TGI (UO-31 renal): 87.5 µM
- TGI (UACC-257 melanoma): 47.5 µM
- TGI (A498 renal): > 100 µM
- TGI (A549 NSCLC): > 100 µM
